In ChEMBL document CHEMBL3098127, “A highly predictive 3D-QSAR model for binding to the voltage-gated sodium channel: design of potent new ligands” (Bioorg Med Chem, 2014):

test system: not listed separately; test: Displacement of [3H]BTX-B from neuronal voltage-gated sodium channel in rat cerebral cortex synaptoneurosomes after 60 mins by scintillation counting; type: tissue-based; details: not given

Compound	IC50 [nM]
c1ccc(C(CCCNC(c2ccccc2)c2ccccc2)c2ccccc2)cc1	1330
c1ccc(CCCNCCCc2ccccc2)cc1	252
c1ccc(C(CCNC(c2ccccc2)c2ccccc2)c2ccccc2)cc1	760
c1ccc(CCCN2CCN(C(c3ccccc3)c3ccccc3)CC2)cc1	192
Fc1ccc(C(CCCN2CCN(C(c3ccccc3)c3ccccc3)CC2)c2ccc(F)cc2)cc1	119
CC(C)(C)c1ccc(C(=O)CCCN2CCN(C(c3ccccc3)c3ccccc3)CC2)cc1	128
c1ccc(C(CCCCNC(c2ccccc2)c2ccccc2)c2ccccc2)cc1	562
c1ccc(C(CCCCCCNC(c2ccccc2)c2ccccc2)c2ccccc2)cc1	560
Fc1ccc(C(CCCNCCCc2ccccc2)c2ccc(F)cc2)cc1	229
O=C(NCCN1CCN(C(c2ccccc2)c2ccccc2)CC1)c1ccccc1	283
c1ccc(C(CNC(c2ccccc2)c2ccccc2)c2ccccc2)cc1	3160
Fc1ccc(C(CCCNCCc2ccccc2)c2ccc(F)cc2)cc1	1230
c1ccc(CCCNCCc2ccccc2)cc1	340
c1ccc(CCN2CCN(C(c3ccccc3)c3ccccc3)CC2)cc1	257
Cc1ccc(C(=O)CCCN2CCN(C(c3ccccc3)c3ccccc3)CC2)cc1C	156
c1ccc(C(CCCCCNC(c2ccccc2)c2ccccc2)c2ccccc2)cc1	345

species on record: Rattus norvegicus; details: Cerebral cortex

Compound	logIC50
CCCCCC1(c2ccccc2)NC(=O)NC1=O (stereo not drawn)	1.59
CCCC1(c2ccccc2)NC(=O)NC1=O (stereo not drawn)	2.21
OC(CCCN1CCCCC1)(c1ccccc1)c1ccccc1	0.53
CCCCCC1(c2ccccc2)NC(=O)N(CN2CCN(C(c3ccccc3)c3ccccc3)CC2)C1=O (stereo not drawn)	0.11
CCCNC(C)(C)COC(=O)c1ccccc1	0.88
CCCCCC1(c2ccccc2)NC(=O)N(Cc2ccccc2)C1=O (stereo not drawn)	0.84
COC(=O)C1=C(C)NC(C)=C(C(=O)OCC(C)C)C1c1ccccc1[N+](=O)[O-] (stereo not drawn)	1.41
CN(C)C(=O)C(CCN1CCC(O)(c2ccc(Cl)cc2)CC1)(c1ccccc1)c1ccccc1	-0.56
NCCCCCCNS(=O)(=O)c1cccc2ccccc12	1.34
O=C(CCCN1CCC(O)(c2ccc(Cl)cc2)CC1)c1ccc(F)cc1	0.08
Cc1cccc(C)c1NC(=O)C(C)N (stereo not drawn)	2.3
CC(C)CNCCOC(=O)c1ccc(N)cc1	1.74
COC(=O)[C@H]1[C@@H](OC(=O)c2ccccc2)C[C@@H]2CC[C@H]1N2C	1.69
CCOC(=O)C1=C(C)NC(C)=C(C(=O)OC)C1c1cccc(Cl)c1Cl (stereo not drawn)	1.57
CCN(CC)CCOC(=O)C1(C2CCCCC2)CCCCC1	0.45
CCCCCC(O)(C(=O)NCCC(c1ccccc1)c1ccccc1)c1ccccc1 (stereo not drawn)	0.4
CCCCCC(O)(C(=O)N1CCN(C(c2ccccc2)c2ccccc2)CC1)c1ccccc1 (stereo not drawn)	0.68
CC(Cc1ccccc1)NCCC(c1ccccc1)c1ccccc1 (stereo not drawn)	-0.52
O=C1NC(=O)C(c2ccccc2)(c2ccccc2)N1	1.6
O=C1NC(=O)C2(CCc3ccccc32)N1 (stereo not drawn)	3.32
CCCCOc1cc(C(=O)OCCN(CC)CC)ccc1N	0.46
CCCCCC1(c2ccccc2)OC(=O)NC1=O (stereo not drawn)	2.5
CCN(CC)CCOC(=O)c1ccc(N)cc1	2.04
Clc1ccc(C(c2ccc(Cl)cc2)[n+]2ccn(CC(OCc3ccc(Cl)cc3Cl)c3ccc(Cl)cc3Cl)c2)cc1 (stereo not drawn)	0.85

Compound	logIC50
CCCCCCCCCC1(c2ccccc2)NC(=O)NC1=O (stereo not drawn)	0.7
CCOC(=O)C1=C(C)NC(C)=C(C(=O)OC)C1c1cccc([N+](=O)[O-])c1 (stereo not drawn)	1.56
CCN(CC)CC(=O)Nc1c(C)cccc1C	1.68
CCCCCCCC(O)(C(N)=O)c1ccccc1 (stereo not drawn)	0.95
O=C1NC(=O)C2(CCCc3ccccc32)N1 (stereo not drawn)	2.93
CCCCN(CCCC)CCCOC(=O)c1ccc(N)cc1	0.43
Cc1cccc(C)c1NC(=O)C1CCCCN1C (stereo not drawn)	2.28
CCCCCC(O)(C(=O)NCCc1ccccc1)c1ccccc1 (stereo not drawn)	0.7
Cc1ccc2c(S(=O)(=O)NCCCCCCN)cccc2c1	1.08
CCC(O)(C(=O)NCCC(c1ccccc1)c1ccccc1)c1ccccc1 (stereo not drawn)	0.91
CCCOc1cc(N)ccc1C(=O)OCCN(CC)CC	1.38
COc1ccc(CCN(C)CCCC(C#N)(c2cc(OC)c(OC)c(OC)c2)C(C)C)cc1OC (stereo not drawn)	0.56
CCC1(c2ccccc2)NC(=O)N(S(=O)(=O)c2ccc(C)cc2)C1=O (stereo not drawn)	1.7
CCCCCCCCCC(O)(C(N)=O)c1ccccc1 (stereo not drawn)	0.81
CCC(OCCCc1ccccc1)(C(=O)CCCCc1ccccc1)c1ccccc1 (stereo not drawn)	0.63
CCC(O)(C(=O)NCCc1ccccc1)c1ccccc1 (stereo not drawn)	1.48
CCCNC(C)C(=O)Nc1ccccc1C (stereo not drawn)	1.73
C[N+](C)(CC(=O)Nc1ccccc1)CC(=O)Nc1ccccc1	0.59
CC(C)COCC(CN(Cc1ccccc1)c1ccccc1)N1CCCC1 (stereo not drawn)	-0.08
CCC1(c2ccccc2)NC(=O)N(CN2CCN(C(c3ccccc3)c3ccccc3)CC2)C1=O (stereo not drawn)	0.52
COc1cc2nc(N3CCN(C(=O)c4ccco4)CC3)nc(N)c2cc1OC	1.33
CCCCOc1ccc(OCCCN2CCOCC2)cc1	1
CCCCOc1cc(C(=O)NCCN(CC)CC)c2ccccc2n1	0.78
O=C1NC(=O)C2(CCCCc3ccccc32)N1 (stereo not drawn)	2.4

Compound	logIC50
CCOc1ccc(/N=C(\C)Nc2ccc(OCC)cc2)cc1	0.23
CCCCc1cc2ccccc2c(OCCN(C)C)n1	0.53
CCCCCCCCCC1(c2ccccc2)NC(=O)N(Cc2ccccc2)C1=O (stereo not drawn)	0.71
CCN1C(=O)NC(=O)C1(C)c1ccccc1 (stereo not drawn)	2.4
CCOC(=O)c1ccc(N)cc1	2.86
CCCCCCCC1(c2ccccc2)NC(=O)NC1=O (stereo not drawn)	0.7
CCC(O)(C(=O)NCCCc1ccccc1)c1ccccc1 (stereo not drawn)	1.54
CCCCCCCC1(c2ccccc2)NC(=O)N(S(C)(=O)=O)C1=O (stereo not drawn)	1.11
CCCC1(c2ccccc2)NC(=O)N(S(C)(=O)=O)C1=O (stereo not drawn)	2.7
CCCCCC(O)(C(=O)NCCCc1ccccc1)c1ccccc1 (stereo not drawn)	0.72
O=C1NC(=O)C2(CCCCCc3ccccc32)N1 (stereo not drawn)	2.4
CCCCCCC1(c2ccccc2)NC(=O)NC1=O (stereo not drawn)	1.11
CN(C)CCC(c1ccccc1)c1ccccn1 (stereo not drawn)	1.52
CCCCCCCC1(c2ccccc2)OC(=O)NC1=O (stereo not drawn)	1.48
CCCC1(c2ccccc2)OC(=O)NC1=O (stereo not drawn)	2.65
OCCN1CCN(CCCN2c3ccccc3Sc3ccc(C(F)(F)F)cc32)CC1	0.57
CCCCC1(c2ccccc2)NC(=O)N(C)C1=O (stereo not drawn)	2.45
CC(O)(C(=O)N1CCN(C(c2ccccc2)c2ccccc2)CC1)c1ccccc1 (stereo not drawn)	0.8
CCCCCCCCCC1(c2ccccc2)NC(=O)N(S(C)(=O)=O)C1=O (stereo not drawn)	1.1
CC12C(=O)NC(=O)N1CCc1ccccc12 (stereo not drawn)	2.86
CN(C)C(=O)C(CCN1CCC(O)(c2ccc(Cl)c(C(F)(F)F)c2)CC1)(c1ccccc1)c1ccccc1	0.55
COc1cc(C(=O)OCCCN2CCCN(CCCOC(=O)c3cc(OC)c(OC)c(OC)c3)CC2)cc(OC)c1OC	-0.22
CC1CCCCN1CCCOC(=O)c1ccccc1 (stereo not drawn)	1.11
CCCCCC1(c2ccccc2)NC(=O)N(S(C)(=O)=O)C1=O (stereo not drawn)	2.05
